Assay results published in patent publication US4820713A, “Ketoalkanol esters of dihydrolysergic acid useful as 5HT receptor antagonists” (Eli Lilly and Company, priority 1988, dated 1989).
Where a name gives a salt, the structure may show the parent alone.

Key:
dopaminergic receptors = details: in words; Cohen I; cited from earlier work
5HT2 receptors [1] = details: cited from earlier work
[2] = test system: vascular alpha adrenergic receptors; details: in words; Cohen I; cited from earlier work
5HT2 receptors [3] = details: in words; cited from earlier work
histaminergic receptors = details: in words; Cohen I; cited from earlier work
5HT2 receptors [4] = target: T1, 5HT2 receptors (Rattus norvegicus, UniProt P14842); assay: Apparent antagonist dissociation constant (-log KB) versus serotonin-induced contraction of isolated rat jugular vein; design: species or system male Wistar rats; details: antagonist incubated one hour, 37° C., maleate salt, read-out: 5HT2 -Log Kb ± S.E. (converted)
T1 construct: external jugular veins and thoracic aortas dissected free of connective tissue; from tissue; host or cells: external jugular vein of male Wistar rats
T1 sequence (P14842 whole entry): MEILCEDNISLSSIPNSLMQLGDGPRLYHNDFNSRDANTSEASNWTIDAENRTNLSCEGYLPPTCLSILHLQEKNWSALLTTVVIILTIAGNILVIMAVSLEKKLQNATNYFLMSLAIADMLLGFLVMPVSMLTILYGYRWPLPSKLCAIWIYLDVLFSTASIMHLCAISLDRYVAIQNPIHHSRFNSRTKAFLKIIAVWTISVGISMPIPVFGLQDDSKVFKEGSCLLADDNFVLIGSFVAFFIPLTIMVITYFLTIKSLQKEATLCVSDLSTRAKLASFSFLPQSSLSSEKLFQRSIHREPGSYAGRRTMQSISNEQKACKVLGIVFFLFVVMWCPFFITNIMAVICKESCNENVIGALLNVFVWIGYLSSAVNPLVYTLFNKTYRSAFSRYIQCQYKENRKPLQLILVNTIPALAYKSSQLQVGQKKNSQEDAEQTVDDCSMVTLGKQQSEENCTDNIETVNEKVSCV
Description: An initial optimum resting force of 1 and 4 g was applied to the jugular vein and aorta, respectively. […] Exp. Ther., 205, 400 (1978). Alpha receptor antagonist activity was evaluated in the aorta.

blood pressure = details: in humans; ketanserin; cited from earlier work

SMILES: CC(O)C(C)OC(=O)[C@@H]1C[C@@H]2c3cccc4c3c(cn4C(C)C)C[C@H]2N(C)C1 (stereo partly drawn) [LY53857, 1-isopropyl-6-methyl-8β-(1-methyl-2-hydroxy)propoxycarbonyl-5R-ergoline]
- affinity for dopaminergic receptors (dopaminergic receptors): minimal affinity
- Kd (5HT2 receptors [1]; Cohen et al. J.P.E.T., 227, 327 (1983), read-out: Kdissoc. (5HT2 receptors)): ~0.1 nM
- antagonism of vascular contraction to serotonin (5HT2 receptors [1]; effect mediated by 5HT2 receptors, Cohen I): potent antagonist of vascular contraction to serotonin
- affinity for vascular alpha adrenergic receptors [2]: minimal affinity
- peripheral serotonin antagonist activity, ranking among Garbrecht compounds (5HT2 receptors [3]): most active peripheral serotonin antagonist
- affinity for histaminergic receptors (histaminergic receptors): minimal affinity

SMILES: CC(=O)[C@@H](C)OC(=O)[C@@H]1C[C@@H]2c3cccc4c3c(cn4C(C)C)C[C@H]2N(C)C1 [RCH(CH3)COCH3, R-1-methyl-2-oxopropyl 1-isopropyl-9,10-dihydrolysergate maleate]
- Kb (5HT2 receptors [4]): 0.355 nM

SMILES: CC(=O)[C@H](C)OC(=O)[C@@H]1C[C@@H]2c3cccc4c3c(cn4C(C)C)C[C@H]2N(C)C1 [SCH(CH3)COCH3, S-1-methyl-2-oxopropyl 1-isopropyl-9,10-dihydrolysergate]
- Kb (5HT2 receptors [4]): 0.269 nM

SMILES: O=C(c1ccc(F)cc1)C1CCN(CCn2c(=O)[nH]c3ccccc3c2=O)CC1 [ketanserin]
- lower blood pressure (blood pressure): lower blood pressure in humans
